The text below walks through data of publication PMC10625584, “Deciphering triterpenoid saponin biosynthesis by leveraging transcriptome response to methyl jasmonate elicitation in Saponaria vaccaria” (Nature Communications, 2023).

Usually Km stands for the substrate concentration at which the rate is half of its maximum.

The experiment concerns T1, SvCslG.
T1 construct: gene CslG; codon-optimized CDS in pESC-URA; S. cerevisiae INVSc1 microsomal protein
The experiment is described as follows: LC-MS assay with yeast microsomal protein, Michaelis-Menten fit. It counts as biochemical, Gypsophila vaccaria. Particulars: 20 mM Tris-HCl pH 8.0, 30 mM Mg2+, 30 °C.

Consider `CC1(C)CC[C@]2(C(=O)O)[C@H](O)C[C@]3(C)C(=CC[C@@H]4[C@@]5(C)CC[C@H](O)[C@@](C)(C=O)[C@@H]5CC[C@]43C)[C@@H]2C1` [QA, quillaic acid], for which, under “UDP-GlcA co-substrate”, the Km came to 3.13 µM.
For the compound `O=C(O)[C@H]1O[C@H](OP(=O)(O)OP(=O)(O)OC[C@H]2O[C@@H](n3ccc(=O)[nH]c3=O)[C@H](O)[C@@H]2O)[C@H](O)[C@@H](O)[C@@H]1O` [UDP-GlcA], the Michaelis-Menten constant (Km) (quillaic acid co-substrate) is 65 µM.
